Source: ChEMBL document CHEMBL1201862, “PubChem BioAssay data set” (2004)
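Each compound was tested at five concentrations against cells in 96-well plates for 48 hours. Here, GI50 denotes the concentration required for 50% inhibition of growth.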 Calls of active or inactive are those of the source. Cut-off read from the data, not from the text of the source: active = GI50 up to about 1.1 µM and inactive = higher.

Legend:
Assay in all cases: inhibition of tumour cell growth, NCI panel, 48 h
MCF7 = tested on: MCF7
MOLT-4 = tested on: MOLT-4
OVCAR-8 = tested on: OVCAR-8
SF-539 = tested on: SF-539
IGROV-1 = tested on: IGROV-1
MDA-N = tested on: MDA-N
786-0 = tested on: 786-0
MDA-MB-435 = tested on: MDA-MB-435
Malme-3M = tested on: Malme-3M
COLO 205 = tested on: COLO 205
HCT-15 = tested on: HCT-15
OVCAR-4 = tested on: OVCAR-4
K562 = tested on: K562
CCRF-CEM = tested on: CCRF-CEM
SK-MEL-5 = tested on: SK-MEL-5
U-251 = tested on: U-251
HCC 2998 = tested on: HCC 2998
PC-3 = tested on: PC-3
RPMI-8226 = tested on: RPMI-8226
SK-OV-3 = tested on: SK-OV-3

| SMILES | GI50 (MCF7) | GI50 (MOLT-4) | GI50 (OVCAR-8) | GI50 (SF-539) | GI50 (IGROV-1) | GI50 (MDA-N) | GI50 (786-0) | GI50 (MDA-MB-435) | GI50 (Malme-3M) | GI50 (COLO 205) | GI50 (HCT-15) | GI50 (OVCAR-4) | GI50 (K562) | GI50 (CCRF-CEM) | GI50 (SK-MEL-5) | GI50 (U-251) | GI50 (HCC 2998) | GI50 (PC-3) | GI50 (RPMI-8226) | GI50 (SK-OV-3) |
| --- | --- | --- | --- | --- | --- | --- | --- | --- | --- | --- | --- | --- | --- | --- | --- | --- | --- | --- | --- | --- |
| CC(=O)Nc1ccccc1C=C1c2ccccc2-c2ccccc21 | 20.9 µM (inactive) | 77.1 µM (inactive) | 21.7 µM (inactive) | 13.2 µM (inactive) | 33 µM (inactive) | > 100 µM (inactive) | 19.9 µM (inactive) | > 100 µM (inactive) | > 100 µM (inactive) | 78.2 µM (inactive) | 45.8 µM | 27.9 µM (inactive) | 51.9 µM (inactive) | 48 µM (inactive) | 57.3 µM (inactive) | 23.2 µM (inactive) | 84.9 µM (inactive) | 41.8 µM (inactive) | 50.2 µM (inactive) | – |
| Cc1ccc(C)c2c1C/C(=C\c1ccccc1C(=O)O)C2=O | > 100 µM (inactive) | 86.9 µM (inactive) | > 100 µM (inactive) | 18.5 µM (inactive) | > 100 µM (inactive) | 87.3 µM (inactive) | > 100 µM (inactive) | 67.5 µM (inactive) | > 100 µM (inactive) | > 100 µM (inactive) | 77.4 µM | 62.7 µM (inactive) | 87.7 µM (inactive) | 55.6 µM (inactive) | 42.7 µM (inactive) | 88.3 µM (inactive) | > 100 µM (inactive) | > 100 µM (inactive) | 27.7 µM (inactive) | – |
| CCOC(=O)CC(=O)Nc1c(C(=O)OCC)sc2nc(SC)nc(Nc3ccc(OC)c(OC)c3)c12 | 38.2 µM (inactive) | – | 34.4 µM (inactive) | 9.86 µM (inactive) | 28.7 µM (inactive) | > 100 µM (inactive) | 6.22 µM (inactive) | > 100 µM (inactive) | > 100 µM (inactive) | > 100 µM (inactive) | 39.9 µM | 66.2 µM (inactive) | – | > 100 µM (inactive) | > 100 µM (inactive) | 6.4 µM (inactive) | > 100 µM (inactive) | > 100 µM (inactive) | – | – |
| COc1cccc(CC2C(=O)N/C(=N\C(C)=O)N2C)c1OC(C)=O (stereo unspecified) | > 100 µM (inactive) | > 100 µM (inactive) | > 100 µM (inactive) | > 100 µM (inactive) | > 100 µM (inactive) | > 100 µM (inactive) | > 100 µM (inactive) | > 100 µM (inactive) | – | > 100 µM (inactive) | > 100 µM | > 100 µM (inactive) | – | > 100 µM (inactive) | > 100 µM (inactive) | > 100 µM (inactive) | > 100 µM (inactive) | > 100 µM (inactive) | – | > 100 µM (inactive) |
| COc1ccc(/C=N/n2c(Cc3ccc(Cl)cc3)n[nH]c2=O)cc1 | 77.8 µM (inactive) | > 100 µM (inactive) | 16.7 µM (inactive) | 22.1 µM (inactive) | 16 µM (inactive) | > 100 µM (inactive) | 17.7 µM (inactive) | > 100 µM (inactive) | – | 32 µM (inactive) | 38 µM | > 100 µM (inactive) | > 100 µM (inactive) | > 100 µM (inactive) | – | 14.3 µM (inactive) | > 100 µM (inactive) | 92.5 µM (inactive) | > 100 µM (inactive) | 36 µM (inactive) |
| CCN(C(=O)N[C@H](C(=O)N[C@@H](CSC)C(=O)N[C@@H](C)C(=O)OC)C(C)C)c1ccccc1 | 16.1 µM (inactive) | 8.3 µM (inactive) | 17.2 µM (inactive) | 19.6 µM (inactive) | 10.4 µM (inactive) | 17.3 µM (inactive) | 17.2 µM (inactive) | 14.7 µM (inactive) | 12.8 µM (inactive) | 17.9 µM (inactive) | 17.8 µM | 20 µM (inactive) | 13.1 µM (inactive) | 2.94 µM (inactive) | 16.7 µM (inactive) | 15.9 µM (inactive) | 19.6 µM (inactive) | 16.9 µM (inactive) | – | 15 µM (inactive) |
| COc1cc(C2SCC(=O)N2c2ccc(-n3c(-c4ccccc4)nc4ccccc4c3=O)cc2)cc(OC)c1OC (stereo unspecified) | > 100 µM (inactive) | 20.1 µM (inactive) | > 100 µM (inactive) | > 100 µM (inactive) | > 100 µM (inactive) | > 100 µM (inactive) | > 100 µM (inactive) | > 100 µM (inactive) | – | > 100 µM (inactive) | 71.1 µM | > 100 µM (inactive) | > 100 µM (inactive) | 69.7 µM (inactive) | 68.9 µM (inactive) | > 100 µM (inactive) | > 100 µM (inactive) | > 100 µM (inactive) | > 100 µM (inactive) | 97.1 µM (inactive) |
| Cc1cn([C@@H]2C[C@H](CO)[C@@H]2O)c(=O)[nH]c1=O | > 100 µM (inactive) | > 100 µM (inactive) | > 100 µM (inactive) | > 100 µM (inactive) | > 100 µM (inactive) | > 100 µM (inactive) | > 100 µM (inactive) | > 100 µM (inactive) | > 100 µM (inactive) | > 100 µM (inactive) | > 100 µM | > 100 µM (inactive) | > 100 µM (inactive) | > 100 µM (inactive) | > 100 µM (inactive) | > 100 µM (inactive) | > 100 µM (inactive) | > 100 µM (inactive) | > 100 µM (inactive) | – |
| CCOC(=O)c1cc2c([nH]1)C(=O)CC1=C2CCN1Cc1ccccc1 | 13.3 µM (inactive) | 4.06 µM (inactive) | 23.1 µM (inactive) | 22.1 µM (inactive) | 17.9 µM (inactive) | 13.5 µM (inactive) | 17.2 µM (inactive) | 13.2 µM (inactive) | 5.65 µM (inactive) | 16.8 µM (inactive) | 8.53 µM | 13.6 µM (inactive) | 3.8 µM (inactive) | 4.43 µM (inactive) | – | 12.5 µM (inactive) | – | 20.5 µM (inactive) | 3.81 µM (inactive) | 19.4 µM (inactive) |
| C[C@]12CC[C@@H]3c4cc(C=O)c(OCc5ccccc5)cc4CC[C@H]3[C@@H]1CCC2OCc1ccccc1 (stereo partly specified) | > 100 µM (inactive) | > 100 µM (inactive) | > 100 µM (inactive) | > 100 µM (inactive) | – | > 100 µM (inactive) | > 100 µM (inactive) | > 100 µM (inactive) | – | > 100 µM (inactive) | > 100 µM | > 100 µM (inactive) | > 100 µM (inactive) | > 100 µM (inactive) | > 100 µM (inactive) | > 100 µM (inactive) | > 100 µM (inactive) | 56.6 µM (inactive) | > 100 µM (inactive) | > 100 µM (inactive) |
| Oc1nc(S)nc(SCc2c(Cl)c(Cl)c(Cl)c(Cl)c2Cl)n1 | 37.2 µM (inactive) | 0.809 µM (active) | 62.7 µM (inactive) | 46.2 µM (inactive) | 69 µM (inactive) | 47.4 µM (inactive) | 42.7 µM (inactive) | 36.9 µM (inactive) | 27.5 µM (inactive) | 18.2 µM (inactive) | 49 µM | 21.9 µM (inactive) | 15.3 µM (inactive) | 15.8 µM (inactive) | > 84.1 µM (inactive) | > 100 µM (inactive) | – | > 67.9 µM (inactive) | 7.18 µM (inactive) | > 96.4 µM (inactive) |
